The results in this text go back to patent publication US12054497B2, “Substituted heterocyclic fused cyclic compound, preparation method therefor and pharmaceutical use thereof” (GENFLEET THERAPEUTICS (SHANGHAI) INC., priority 2019, dated 2024).

Data set [1] can be described thus: Pharmacokinetic evaluation on mice, intragastric (PO) administration (Test Example 6). The conditions noted are these: PO 15 mg/kg, male CD-1 mice. The data set is classed as in vivo. The protocol:
(§1) Experimental objective: male CD-1 mice were chosen as tested animals, and the LC-MS-MS method was employed to measure the concentrations of a tested compound in blood plasma of a mouse intravenously and intragastrically administrated with the tested compound at different times. The pharmacokinetic behaviors of tested compounds in mice were studied, and the pharmacokinetic characteristics thereof were evaluated.
(§2) Experimental scheme: experimental animals: 18 healthy adult male CD-1 mice (6 to 8 weeks old, and body weight about 30 g) were divided into 6 groups according to the principle of similar body weights: 3 mice in each of IV groups (3 groups), and 3 mice in each of PO groups (3 groups). The animals were purchased from Shanghai Jihui Laboratory Animal Care Co., Ltd.
(§3) Formulation: IV group: taking 10 mL of sample solution for example, 4 mg of sample was weighed, orderly added with 0.5 mL of DMSO and […], then added with […] of HP-p-CD, finally added with water to a constant volume of 10 mL, and stirred and subjected to ultrasonic irradiation, thereby obtaining a 0.4 mg/mL clear solution. PO group: an appropriate amount of sample was weighed, orderly added with appropriate amounts of Labrasol and water in a volume ratio of 10:40, and stirred and subjected to ultrasonic irradiation, thereby obtaining a 1.5 mg/mL uniform solution.
(§4) Administration: after being deprived of food for one night, the IV groups were intravenously administrated with the formulated solutions, respectively, with an injection volume of 5 mL/kg and a dosage of 2 mg/kg. The PO groups were intragastrically administrated with the formulated solutions, respectively, with an injection volume of […] and a dosage of 15 mg/kg.
(§5) Experimental operations: after the intravenous injection groups and the intragastric administration groups of the male CD-1 mice were administrated with the tested compounds, 110 ul of blood was sampled at the following time points: 0.0833, 0.25, 0.5, 1, 2, 4, 6, 8, and 24 hours. The sampled blood was placed into an anticoagulant tube which was added with K2EDTA in advance and preserved in dry ice. The tube was centrifuged for 15 minutes to separate blood plasma, and the separated blood plasma was preserved at −70° C. The animals were allowed to be fed after 4 hours of administration. The LC-MS-MS method was employed to measure the concentration of the tested compounds in the blood plasma after the intravenous and intragastric administration to the mice. The linear range of the method was 1-3000 ng/ml. The blood plasma samples were analyzed after protein precipitation with ACN.

The test system of data set [2] is subcutaneous xenograft tumor model of MIA PaCa-2. The data set is described as follows: In vivo pharmacodynamic experiment, tumor growth inhibition (Test Example 5). Also on record: species or system BALB/c nude mice. The conditions noted are these: p.o., QD; for TGI: day 14. The protocol: Experimental objective: to evaluate the in vivo pharmaceutical effects of tested compounds on the subcutaneous xenograft tumor model of MIA PaCa-2.
Experimental operation: 6 to 8 weeks old female BALB/c nude mice each having the body weight of 18-20 g were chosen. MIA PaCa-2 cells were cultured in DMEM containing 10% FBS, 2.5% HS and 1% penicillin-streptomycin at 37° C. in an incubator with 5% CO2. Cells were collected. The MIA PaCa-2 cells were subcutaneously inoculated to the animals at their backs on the right, 2.0×10^6 cells (0.1 mL) for each animal. When tumor grew to 190-311 mm^3, mice with tumor having a suitable size were chosen and treated in groups, with administration dosages shown in Table 5 below. The animals were weighed on an electronic balance each day. The tumor volume was investigated by using a vernier caliper twice a week. The tumor volume was calculated by the following equation: V=0.5 a×b^2, a and b representing the long diameter and the short diameter of the tumor, respectively. The tumor volume was used to calculate a tumor growth inhibition rate (TGI), and the TGI shown in the form of a percentage was used to indicate the antineoplastic activity of a compound. The TGI was calculated by the following equation: TGI (%)=[1−avTi−0/avCi−0)]×100, with avTi−0 representing the average tumor volume of the group administrated with the compound on a specific day minus the average tumor volume of this group on the day of grouping, and avCi−0 representing the average tumor volume of the solvent control group on a specific day minus the average tumor volume of the solvent control group on the day of grouping. The tumor volume was shown in the form of an average value±standard error of mean (SEM).

Data set [3] can be described thus: Pharmacokinetic evaluation on mice, intravenous administration (Test Example 6). Format: in vivo. The conditions noted are these: male CD-1 mice, IV 2 mg/kg. Here is the method:
as §1, §2, §3, §4, §5

Molecules are shown by their SMILES.

The term Cmax denotes the peak of the concentration-time curve. By Tmax is commonly meant the time at which the peak concentration occurs. `C=CC(=O)N1CCN(c2nc(=O)n(-c3c(C)ccnc3C(C)C)c3nc(-c4c(O)cccc4F)c(F)cc23)[C@@H](C)C1` [AMG 510, reference compound]: in data set [1], the “F (bioavailability)” value is recorded as 36.10%. Besides, in data set [1] (plasma), the highest concentration (Cmax) turned out to be 1221 ng/mL and the Tmax came to 60 min. Moreover, in data set [2] (1 mg/kg), the “Tumor Volume on Day 14 after Administration” value (“Tumor Volume” for short) came out at 314.28 mm^3 and the TGI amounted to 82.8%. For the same compound, in data set [2] (3 mg/kg), the “Tumor Volume” value was 205.35 mm^3 and the TGI was 109.1%. Moreover, in data set [2] (10 mg/kg), the “Tumor Volume” value was determined as 81.72 mm^3 and the TGI was found to be 138.9%. Besides, in data set [3], the “Cl (clearance rate)” value was 73.2 mL/min/kg, the “T1/2 (half-life)” value stood at 19.1 min and the “Vd (volume of distribution)” value was 1.15 L/kg.
